Reference: publication PMC6222357, “Liquid Chromatography-Tandem Mass Spectrometry Simultaneous Determination and Pharmacokinetic Study of Fourteen Alkaloid Components in Dog Plasma after Oral Administration of Corydalis bungeana Turcz Extract” (Molecules : A Journal of Synthetic Chemistry and Natural …, 2018)
Read-outs that look alike come from different tables or passages of the source.

Legend:
[1] = Room temperature stability of stock solution; format: physicochemical; settings: 25 °C for 24 h, n = 6
Description: (§1) The stability of the fourteen analytes in beagle dogs investigated by analyzing QC samples of each analyte at three QC levels (LQC, MQC and HQC) and each level contained six replicates. The short-term stability was assessed during storage for 4 h at ambient temperature. The long-term stability was determined after the QC samples had been stored for 2 weeks at −80 °C. The freeze-thaw stability was determined after three freeze at −80 °C and thaw cycles. and post-preparative stability was during storage for 12 h after sample preparation at 4 °C. The room temperature stability for stock solution was determined after storing the sample at 25 °C for 24 h. A series of concentrations of stability testing QC samples was gained by the calibration curve which was established from freshly prepared standard samples.

[2] = design: method as in PMID 26805956; settings: rat plasma, single oral administration of C. bungeana extract; cited from earlier work
[3] = Pharmacokinetic study in beagle dogs after oral administration of C. bungeana extract (UHPLC-MS/MS of plasma); settings: male, beagle, dog, plasma, po, 0.12 g/kg
Description: (§2) The developed UHPLC-MS/MS method was employed to determine the pharmacokinetics of the fourteen components in C. bungeana after a single oral administration of 0.12 g/kg (equivalent to 1180.8 µg/kg A, 100.8 µg/kg B, 172.8 µg/kg C, 194.4 µg/kg D, 147.6 µg/kg E, 291.6 µg/kg F, 7.2 µg/kg G, 64.8 µg/kg H, 10.8 µg/kg I, 435.6 µg/kg J, 7.2 µg/kg K, 2851.2 µg/kg L, 694.8 µg/kg M, 928.8µg/kg N) to six beagle dogs. […] According to the Meeh-Rubn method, we established a final oral dosage of 0.12 g/kg in dogs. The plasma concentrations of the fourteen components at each time point were detected and the data gained from six beagle dogs were averaged.
(§3) Before the experiment, the beagle dogs were fasted for 12 h but given water during the research period. Blood (300 µL) was collected from the forelimb vein plexus at a few specific time points (0.083, 0.25, 0.5, 0.75 and 1, 2, 3, 4, 6, 8, 12, 24 h) after the oral administration of the extract of C. bungeana (0.12 g/kg). After centrifugation at 13,000 rpm for 10 min, the plasma was collected immediately and maintained at −80 °C until sample analysis.
(§4) Using a liquid-liquid extraction method, 100 µL of methanol and 50 µL of IS (bifendate) were added to a beagle dog plasma sample (100 µL) followed by vortex for 30 s. Then 3 mL of aether was accurately added and the mixture was vortexed for 60 s. After this step, the samples were put into a centrifuge (XiangYi Technologies, Changsha, Hunan, China). The organic supernatant was pipetted into clean glass tubes individually after centrifugation 3800 rpm for 6 min. The upper organic layer was removed and evaporated to dryness at 40 °C under a stream of nitrogen. The residue was then redissolved with 100 µL of mobile phase (28% acetonitrile), vortexed for 30 s and filtered by a 0.22 µm membrane. A 10 µL aliquot of the solution was injected into the UHPLC-MS/MS system for analysis.
(§5) Concentrations of fourteen alkaloids in beagle dog blood were calculated employing the Excel program (Microsoft Corp., Redmond, WA, USA). Pharmacokinetic parameters were calculated using non-compartmental methods. The elimination rate constant (Ke) was calculated employing the linear regression of the terminal points in a semi-log plot of the plasma concentration against time. The elimination half-life (t1/2) was calculated using the formula. t1/2 = 0.693/Ke(1)
(§6) The area under the blood concentration versus time curve up to the last quantifiable time point (AUC0→t) was calculated by the linear trapezoidal rule. The area under the plasma concentration –time curve to time infinity (AUC0→∞) was calculated as follows: AUC0→∞ = AUC0→t + Ct/Ke(2)
(§7) The maximum observed blood concentration (Cmax) and the time to reach maximum observed blood concentration (Tmax) were obtained directly from the concentration-time curve.

[4] = Stability of the analytes in beagle plasma QC samples under different storage conditions; format: physicochemical, beagle dog; settings: n = 6; for Stability (% RE) Long-Term: 2 weeks at −80 °C; for Stability (% RE) Short-Term: 4 h at ambient temperature; for Stability (% RE) Freeze-Thaw: three freeze (−80 °C)-thaw cycles; for Stability (% RE) Post-Preparative: 12 h after sample preparation at 4 °C
Description: As illustrated in Table 4. The stability of QC samples at three evaluated concentrations contained low, medium and high under different stored conditions was assessed on the basis of peak areas in comparison with freshly prepared QC sample.
as §1

[5] = in vivo; settings: male, beagle, dog, po, 0.12 g/kg
Description: as §2, §3, §4, §5, §6, §7

Question: Which “Stability (% RE) Room Temperature for Stock-Solution” value (shortened to “Stability (% RE) Room Temperature”) ([1]; high QC level) does the source give for `COc1ccc(CCNC(=O)/C=C/c2ccc(O)c(O)c2)cc1` [Z23, 7′-(3′,4′-dihydroxyphenyl)-N-[(4-methoxyphenyl)-ethyl]propena-mide] here?
Answer: Its value is 2.30 % RE.

Question: And the “Stability (% RE) Room Temperature” value ([1]; low QC level)?
Answer: The value was 3.65 % RE.

Question: And the “Stability (% RE) Room Temperature” value ([1]; medium QC level)?
Answer: Its value is 1.64 % RE.

Question: And the Tmax [2]?
Answer: The Tmax was 3.71 h.

Question: And the AUC(0-inf) [3]?
Answer: The AUC(0-inf) was 0.747 ± 0.0952 µg·h/mL.

Question: What about the AUC(0-t) [3] of the same compound?
Answer: The AUC(0-t) was 0.682 ± 0.0748 µg·h/mL.

Question: And the Cmax [3]?
Answer: The Cmax was 0.237 ± 0.0137 µg/mL.

Question: And the Tmax [3]?
Answer: Its Tmax is 0.96 ± 0.1 h.

Question: And the half-life [3]?
Answer: The half-life was 6.34 ± 1.21 h.

Question: What about the “Stability (% RE) Long-Term” value ([4]; high QC in beagle plasma) of the same compound?
Answer: The value was 9.00 % RE.

Question: And the “Stability (% RE) Short-Term” value ([4]; high QC in beagle plasma)?
Answer: Its value is 10.85 % RE.

Question: And the “Stability (% RE) Freeze-Thaw” value ([4]; high QC in beagle plasma)?
Answer: Its value is 12.43 % RE.

Question: What about the “Stability (% RE) Post-Preparative” value ([4]; high QC) of the same compound?
Answer: Its value is −6.09 % RE.

Question: What about the “Stability (% RE) Long-Term” value ([4]; low QC in beagle plasma) of the same compound?
Answer: Its value is −8.16 % RE.

Question: And the “Stability (% RE) Short-Term” value ([4]; low QC in beagle plasma)?
Answer: Its value is 10.52 % RE.

Question: And the “Stability (% RE) Freeze-Thaw” value ([4]; low QC in beagle plasma)?
Answer: The value was 5.35 % RE.

Question: What about the “Stability (% RE) Post-Preparative” value ([4]; low QC) of the same compound?
Answer: The value was 12.10 % RE.

Question: What about the “Stability (% RE) Long-Term” value ([4]; medium QC in beagle plasma) of the same compound?
Answer: Its value is 9.86 % RE.

Question: And the “Stability (% RE) Short-Term” value ([4]; medium QC in beagle plasma)?
Answer: The value was 9.94 % RE.

Question: What about the “Stability (% RE) Freeze-Thaw” value ([4]; medium QC in beagle plasma) of the same compound?
Answer: The value was 12.92 % RE.

Question: What about the “Stability (% RE) Post-Preparative” value ([4]; medium QC) of the same compound?
Answer: Its value is 11.32 % RE.

Question: With `CN1CCc2cc3c(cc2C(=O)Cc2ccc4c(c2C1)OCO4)OCO3` [Protopine, protopine] as the compound, how does the Tmax [2] read?
Answer: The Tmax was 1.96 h.

Question: And the AUC(0-inf) [3]?
Answer: The AUC(0-inf) was 1.08 ± 0.136 µg·h/mL.

Question: What about the AUC(0-t) [3] of the same compound?
Answer: Its AUC(0-t) is 1.03 ± 0.106 µg·h/mL.

Question: And the Cmax [3]?
Answer: Its Cmax is 0.434 ± 0.0739 µg/mL.

Question: And the Tmax [3]?
Answer: Its Tmax is 0.88 ± 0.13 h.

Question: And the half-life [3]?
Answer: Its half-life is 4.92 ± 1.49 h.

Question: What about the “Stability (% RE) Long-Term” value ([4]; high QC in beagle plasma) of the same compound?
Answer: The value was 13.11 % RE.

Question: And the “Stability (% RE) Short-Term” value ([4]; high QC in beagle plasma)?
Answer: The value was 12.18 % RE.

Question: And the “Stability (% RE) Freeze-Thaw” value ([4]; high QC in beagle plasma)?
Answer: The value was 10.26 % RE.

Question: And the “Stability (% RE) Post-Preparative” value ([4]; high QC)?
Answer: The value was 10.57 % RE.

Question: And the “Stability (% RE) Long-Term” value ([4]; low QC in beagle plasma)?
Answer: Its value is −5.39 % RE.

Question: What about the “Stability (% RE) Short-Term” value ([4]; low QC in beagle plasma) of the same compound?
Answer: Its value is 5.52 % RE.

Question: And the “Stability (% RE) Freeze-Thaw” value ([4]; low QC in beagle plasma)?
Answer: The value was 3.72 % RE.

Question: What about the “Stability (% RE) Post-Preparative” value ([4]; low QC) of the same compound?
Answer: The value was 1.65 % RE.

Question: What about the “Stability (% RE) Long-Term” value ([4]; medium QC in beagle plasma) of the same compound?
Answer: The value was 7.93 % RE.

Question: And the “Stability (% RE) Short-Term” value ([4]; medium QC in beagle plasma)?
Answer: The value was 8.75 % RE.

Question: And the “Stability (% RE) Freeze-Thaw” value ([4]; medium QC in beagle plasma)?
Answer: Its value is 4.17 % RE.

Question: And the “Stability (% RE) Post-Preparative” value ([4]; medium QC)?
Answer: The value was 11.35 % RE.

Question: Which “Stability (% RE) Room Temperature” value ([1]; high QC level) does the source give for `C[n+]1cc2c3c(ccc2c2ccc4cc5c(cc4c21)OCO5)OCO3` [Sanguinarine, sanguinarine] here?
Answer: Its value is −4.02 % RE.

Question: What about the “Stability (% RE) Room Temperature” value ([1]; low QC level) of the same compound?
Answer: The value was 2.48 % RE.

Question: And the “Stability (% RE) Room Temperature” value ([1]; medium QC level)?
Answer: Its value is 3.20 % RE.

Question: And the “Stability (% RE) Long-Term” value ([4]; high QC in beagle plasma)?
Answer: The value was 11.08 % RE.

Question: What about the “Stability (% RE) Short-Term” value ([4]; high QC in beagle plasma) of the same compound?
Answer: Its value is 9.29 % RE.

Question: And the “Stability (% RE) Freeze-Thaw” value ([4]; high QC in beagle plasma)?
Answer: Its value is 12.22 % RE.

Question: And the “Stability (% RE) Post-Preparative” value ([4]; high QC)?
Answer: The value was 10.40 % RE.

Question: And the “Stability (% RE) Long-Term” value ([4]; low QC in beagle plasma)?
Answer: The value was 13.35 % RE.

Question: What about the “Stability (% RE) Short-Term” value ([4]; low QC in beagle plasma) of the same compound?
Answer: Its value is 12.41 % RE.

Question: And the “Stability (% RE) Freeze-Thaw” value ([4]; low QC in beagle plasma)?
Answer: The value was 11.45 % RE.

Question: What about the “Stability (% RE) Post-Preparative” value ([4]; low QC) of the same compound?
Answer: The value was 7.77 % RE.

Question: What about the “Stability (% RE) Long-Term” value ([4]; medium QC in beagle plasma) of the same compound?
Answer: The value was 7.46 % RE.

Question: And the “Stability (% RE) Short-Term” value ([4]; medium QC in beagle plasma)?
Answer: Its value is −5.50 % RE.

Question: What about the “Stability (% RE) Freeze-Thaw” value ([4]; medium QC in beagle plasma) of the same compound?
Answer: Its value is 8.78 % RE.

Question: And the “Stability (% RE) Post-Preparative” value ([4]; medium QC)?
Answer: Its value is −2.41 % RE.

Question: What about the AUC(0-inf) [5] of the same compound?
Answer: Its AUC(0-inf) is 1.35 ± 0.109 µg·h/mL.

Question: And the AUC(0-t) [5]?
Answer: The AUC(0-t) was 1.26 ± 0.107 µg·h/mL.

Question: And the Cmax [5]?
Answer: Its Cmax is 0.533 ± 0.0291 µg/mL.

Question: What about the Tmax [5] of the same compound?
Answer: Its Tmax is 0.96 ± 0.1 h.

Question: And the half-life [5]?
Answer: Its half-life is 5.63 ± 1.36 h.

Question: Which results are given for `c1c2c(cc3c1OCO3)-c1cc3ccc4c(c3c[n+]1CC2)OCO4` [Coptisine, coptisine]?
Answer: Stability (% RE) Long-Term ([4]; high QC in beagle plasma): 13.69 % RE; Stability (% RE) Short-Term ([4]; high QC in beagle plasma): 7.57 % RE; Stability (% RE) Freeze-Thaw ([4]; high QC in beagle plasma): 12.83 % RE; Stability (% RE) Long-Term ([4]; low QC in beagle plasma): 5.48 % RE; Stability (% RE) Short-Term ([4]; low QC in beagle plasma): 10.66 % RE; Stability (% RE) Freeze-Thaw ([4]; low QC in beagle plasma): 10.21 % RE; Stability (% RE) Long-Term ([4]; medium QC in beagle plasma): 6.73 % RE; Stability (% RE) Short-Term ([4]; medium QC in beagle plasma): −3.05 % RE; Stability (% RE) Freeze-Thaw ([4]; medium QC in beagle plasma): 8.93 % RE; AUC(0-inf) [5]: 6.03 ± 0.194 µg·h/mL; AUC(0-t) [5]: 5.96 ± 0.205 µg·h/mL; Cmax [5]: 2.26 ± 0.256 µg/mL; Tmax [5]: 0.92 ± 0.13 h; half-life [5]: 2.48 ± 0.33 h
